Results published in PubChem BioAssay AID248 (DTP/NCI, 2004).
Values joined by “and” are separate entries in the source; they are usually repeats but may differ in a detail not shown here. Identical values can stand only once. Toxic doses and inconclusive results are not listed. No stated cut-off is given here; in the data, active means T/C of 150% or more; inactive means T/C below 125%.

System: L1210 leukemia ip in BDF1 mice, survival T/C
Assay: NCI In Vivo Anticancer Drug Screen. Data for tumor model L1210 Leukemia (intraperitoneal) in B6D2F1 (BDF1) mice
Conditions: endpoint: mean survival time, higher = longer survival
How it was run: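 Transplantable tumor model; survival measured in treated vs vehicle control mice. Value = treated/control.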

[1] = dose: 50.0 mg/kg/injection, schedule: Q01DX009 (ip), vehicle: Klucel (hydroxypropylcellulose) (HPC)
[2] = dose: 100.0 mg/kg/injection, schedule: Q01DX009 (ip), vehicle: Klucel (hydroxypropylcellulose) (HPC)
[3] = dose: 100.0 mg/kg/injection, schedule: Q04DX003 (ip), vehicle: Klucel (hydroxypropylcellulose) (HPC)
[4] = dose: 200.0 mg/kg/injection, schedule: Q04DX003 (ip), vehicle: Klucel (hydroxypropylcellulose) (HPC)
[5] = dose: 200.0 mg/kg/injection, schedule: Q01DX009 (ip), vehicle: Klucel (hydroxypropylcellulose) (HPC)
[6] = dose: 400.0 mg/kg/injection, schedule: Q01DX009 (ip), vehicle: Klucel (hydroxypropylcellulose) (HPC)
[7] = dose: 400.0 mg/kg/injection, schedule: Q04DX003 (ip), vehicle: Klucel (hydroxypropylcellulose) (HPC)
[8] = dose: 100.0 mg/kg/injection, schedule: Q04DX002 (ip), vehicle: saline with Tween-80
[9] = dose: 200.0 mg/kg/injection, schedule: Q04DX002 (ip), vehicle: saline with Tween-80
[10] = dose: 100.0 mg/kg/injection, schedule: Q01DX001 (ip), vehicle: Klucel (hydroxypropylcellulose) (HPC)
[11] = dose: 200.0 mg/kg/injection, schedule: Q01DX001 (ip), vehicle: Klucel (hydroxypropylcellulose) (HPC)
[12] = dose: 400.0 mg/kg/injection, schedule: Q01DX001 (ip), vehicle: Klucel (hydroxypropylcellulose) (HPC)
[13] = dose: 50.0 mg/kg/injection, schedule: Q01DX009 (ip), vehicle: saline with Tween-80
[14] = dose: 100.0 mg/kg/injection, schedule: Q01DX009 (ip), vehicle: saline with Tween-80
[15] = dose: 200.0 mg/kg/injection, schedule: Q01DX009 (ip), vehicle: saline with Tween-80
[16] = dose: 400.0 mg/kg/injection, schedule: Q04DX002 (ip), vehicle: saline with Tween-80
[17] = dose: 100.0 mg/kg/injection, schedule: Q04DX003 (ip), vehicle: saline with Tween-80
[18] = dose: 200.0 mg/kg/injection, schedule: Q04DX003 (ip), vehicle: saline with Tween-80
[19] = dose: 400.0 mg/kg/injection, schedule: Q04DX003 (ip), vehicle: saline with Tween-80

Measured: T/C

N#Cc1ccc(OCCCCCOc2ccc(C#N)cc2I)c(I)c1
inactive: dose: 25.0 mg/kg/injection, schedule: Q04DX002 (ip), vehicle: Klucel (hydroxypropylcellulose) (HPC) 100 % of control | dose: 50.0 mg/kg/injection, schedule: Q04DX002 (ip), vehicle: Klucel (hydroxypropylcellulose) (HPC) 100 % of control | dose: 100.0 mg/kg/injection, schedule: Q04DX002 (ip), vehicle: Klucel (hydroxypropylcellulose) (HPC) 95 % of control and 97 % of control | dose: 200.0 mg/kg/injection, schedule: Q04DX002 (ip), vehicle: Klucel (hydroxypropylcellulose) (HPC) 89 % of control | dose: 400.0 mg/kg/injection, schedule: Q04DX002 (ip), vehicle: Klucel (hydroxypropylcellulose) (HPC) 94 % of control

CCOC(=O)N1c2ccccc2C=CC1/C(N)=N/O (centres undefined)
inactive: [1] 95 % of control | [2] 89 % of control | [3] 97 % of control | [4] 91 % of control

CC1(C)CC(=O)c2c(cc(O)c3ccc(=O)oc23)O1
inactive: [2] 96 % of control | [3] 100 % of control | [5] 98 % of control | [4] 104 % of control | [6] 91 % of control | [7] 96 % of control

CCOC(=O)C(N)CCl (centres undefined)
inactive: dose: 6.25 mg/kg/injection, schedule: Q01DX001 (ip), vehicle: saline 100 % of control | dose: 12.5 mg/kg/injection, schedule: Q01DX001 (ip), vehicle: saline 101 % of control | dose: 25.0 mg/kg/injection, schedule: Q01DX001 (ip), vehicle: saline 101 % of control | dose: 50.0 mg/kg/injection, schedule: Q01DX001 (ip), vehicle: saline 99 % of control | dose: 100.0 mg/kg/injection, schedule: Q01DX001 (ip), vehicle: saline 97 % of control | dose: 200.0 mg/kg/injection, schedule: Q01DX001 (ip), vehicle: saline 95 % of control

C[N+]1(N)CCCCCC1
inactive: dose: 100.0 mg/kg/injection, schedule: Q04DX002 (ip), vehicle: saline 94 % of control | dose: 200.0 mg/kg/injection, schedule: Q04DX002 (ip), vehicle: saline 113 % of control | dose: 400.0 mg/kg/injection, schedule: Q04DX002 (ip), vehicle: saline 87 % of control

O=C(Nc1c(Oc2ccc(Cl)cc2)ccc(Cl)c1S(=O)(=O)O)Nc1c(Oc2ccc(Cl)cc2)ccc(Cl)c1S(=O)(=O)O
inactive: dose: 100.0 mg/kg/injection, schedule: Q01DX001 (ip), vehicle: acetone 95 % of control | dose: 100.0 mg/kg/injection, schedule: Q04DX003 (ip), vehicle: saline 95 % of control | dose: 200.0 mg/kg/injection, schedule: Q04DX003 (ip), vehicle: saline 96 % of control | dose: 400.0 mg/kg/injection, schedule: Q01DX001 (ip), vehicle: acetone 92 % of control

Cc1cc(C)c(NC(=O)/C=C/C(=O)O)c(C)c1
inactive: [8] 91 % of control and 92 % of control | [9] 94 % of control and 99 % of control | dose: 800.0 mg/kg/injection, schedule: Q04DX002 (ip), vehicle: saline with Tween-80 103 % of control

COC1=CC(=O)C2=C(C1=O)C1(C)CCCC(C)(COC(C)=O)C1CC2 (centres undefined)
inactive: dose: 200.0 mg/kg/injection, schedule: Q01DX001 (ip), vehicle: carboxymethylcellulose (CMC) 95 % of control | dose: 400.0 mg/kg/injection, schedule: Q01DX001 (ip), vehicle: carboxymethylcellulose (CMC) 88 % of control

c1ccc(SC23CC4CC(CC(C4)C2)C3)nc1
inactive: dose: 100.0 mg/kg/injection, schedule: Q01DX003 (ip), vehicle: Klucel (hydroxypropylcellulose) (HPC) 100 % of control | [3] 94 % of control | dose: 200.0 mg/kg/injection, schedule: Q01DX003 (ip), vehicle: Klucel (hydroxypropylcellulose) (HPC) 89 % of control | [4] 91 % of control | dose: 400.0 mg/kg/injection, schedule: Q01DX003 (ip), vehicle: Klucel (hydroxypropylcellulose) (HPC) 94 % of control | [7] 102 % of control

COC1CCC2(C)C(=CCC3C2CCC2(C)C(C(C)CCCC(C)C)CCC32)C1 (centres undefined)
inactive: [10] 97 % of control | [11] 94 % of control | [12] 94 % of control

CN(C)c1ccc(C(=O)Oc2ccc([N+](=O)[O-])cc2)cc1
inactive: [2] 90 % of control | [3] 95 % of control | [5] 101 % of control | [4] 98 % of control | [6] 102 % of control | [7] 96 % of control

O=C(O)CSc1c([N+](=O)[O-])cc(C(F)(F)F)cc1[N+](=O)[O-]
inactive: [1] 101 % of control | [2] 101 % of control | [5] 95 % of control

O/N=C\c1ccc(/C=N/O)cc1
inactive: [13] 97 % of control | [14] 93 % of control | [15] 97 % of control

CCOC(=O)C12CCC(C(=O)OCC)(CC1=O)C(=O)C2
inactive: [8] 88 % of control | [9] 95 % of control | [16] 98 % of control

COc1cccc(N2C(=O)C3C(C2=O)C2(Cl)C(Cl)=C(Cl)C3(Cl)C2(Cl)Cl)c1 (centres undefined)
inactive: [2] 98 % of control | [5] 94 % of control | [6] 89 % of control

O=C1NC(=O)C(c2ccccc2)C1=O (centres undefined)
inactive: dose: 50.0 mg/kg/injection, schedule: Q01DX Z (ip), vehicle: other 105 % of control | dose: 100.0 mg/kg/injection, schedule: Q01DX Z (ip), vehicle: other 96 % of control | dose: 200.0 mg/kg/injection, schedule: Q01DX Z (ip), vehicle: other 91 % of control | dose: 400.0 mg/kg/injection, schedule: Q01DX Z (ip), vehicle: other 89 % of control

NC(=O)CC[n+]1ccccc1
inactive: dose: 12.5 mg/kg/injection, schedule: Q01DX009 (ip), vehicle: saline 97 % of control | dose: 25.0 mg/kg/injection, schedule: Q01DX009 (ip), vehicle: saline 93 % of control | dose: 50.0 mg/kg/injection, schedule: Q01DX009 (ip), vehicle: saline 96 % of control | dose: 50.0 mg/kg/injection, schedule: Q04DX003 (ip), vehicle: saline 105 % of control

CN(C)/N=N/c1ncn(C2CCCO2)c1C(N)=O (centres undefined)
inactive: dose: 200.0 mg/kg/injection, schedule: Q01DX005 (ip), vehicle: saline 115 % of control

CC(=O)OCCN1c2ccccc2Sc2cnccc21
inactive: [14] 104 % of control | [17] 104 % of control | [15] 97 % of control | [18] 110 % of control | dose: 400.0 mg/kg/injection, schedule: Q01DX009 (ip), vehicle: saline with Tween-80 104 % of control | [19] 104 % of control

O=C1NC(=O)C2CC=CCC12 (centres undefined)
inactive: [17] 101 % of control | [18] 106 % of control | [19] 106 % of control

O=C(c1cccnc1)n1cc2c(n1)C1=C(CCCC1)CC2
inactive: [3] 90 % of control | [4] 89 % of control | [7] 86 % of control

CCC1(c2ccccc2)C(=O)NC(=O)N(CN2CCOCC2)C1=O (centres undefined)
inactive: [13] 114 % of control | [14] 93 % of control | [15] 97 % of control

COC(=O)c1cocc1C(=O)N1Cc2cc3ccccc3nc2C1
inactive: [10] 103 % of control | [11] 95 % of control | [12] 94 % of control

NC(=O)N/N=C/c1ccc[n+]([O-])c1
inactive: dose: 37.5 mg/kg/injection, schedule: Q04DX002 (ip), vehicle: saline with Tween-80 102 % of control | dose: 75.0 mg/kg/injection, schedule: Q04DX002 (ip), vehicle: saline with Tween-80 108 % of control | [8] 86 % of control | dose: 150.0 mg/kg/injection, schedule: Q04DX002 (ip), vehicle: saline with Tween-80 97 % of control | [16] 96 % of control

N#CC(c1ccccc1)N1CCOCC1 (centres undefined)
inactive: [3] 91 % of control | [4] 96 % of control | [7] 95 % of control

CC(=O)N(C1=CC(=O)c2ccccc2C1=O)c1ccc(Cl)cc1
inactive: dose: 75.0 mg/kg/injection, schedule: Q01DX001 (ip), vehicle: carboxymethylcellulose (CMC) 98 % of control | dose: 150.0 mg/kg/injection, schedule: Q01DX001 (ip), vehicle: carboxymethylcellulose (CMC) 95 % of control | dose: 300.0 mg/kg/injection, schedule: Q01DX001 (ip), vehicle: carboxymethylcellulose (CMC) 97 % of control

COc1ccc(CC2NCCc3cc(OC)c(OC)cc32)cc1OC (centres undefined)
inactive: dose: 75.0 mg/kg/injection, schedule: Q01DX001 (ip), vehicle: saline 101 % of control
